Patent US8207211B2, “Photosensitizers for targeted photodynamic therapy” (The General Hospital Corporation, priority 2005, dated 2012)

Experiments:
E. coli = assay: Photodynamic inactivation (PDI), CFU survival, white light (red light for TBO); assay type: cell-based, Escherichia coli; conditions: 10 μM
Method: (§1) Staphylococcus aureus (ATCC #35556), Escherichia coli (ATCC #25922), and Pseudomonas aeruginosa (ATCC #BAA-47; PAO1) were cultured in brain-heart infusion (BHI) broth (Difco, BD Diagnosttic Systems, Sparks, Md.) at 37° C. in aerobic conditions in a shaker at 150 rpm. Candida albicans (ATCC #18804) is grown in YM broth (Difco). Exponential cultures obtained by reculturing stationary overnight precultures were used for experiments.
(§2) E. coli, P. aeruginosa, and S. aureus are grown in fresh medium for approximately 1 hr to a density of about 10^8 cells/ml; the OD values at 650 nm are 0.6, 0.8, and 0.8, respectively. C. albicans is grown for approximately 4 hr to an approximate density of 10^8 cells/ml, corresponding to an OD of 6 at 650 nm (measured at 10-fold dilution). Cells were used for experiments in the mid-log growth phase.
(§3) A noncoherent lamp with filtered liquid light guides, e.g., a LumaCare™ LC122 lamp (MBG Technologies, Inc., Newport Beach, Calif.) was used to provide illumination of PS. More specifically, for illumination of fullerenes, a broad-band white light band pass filter (400-700 nm) was used, whereas for TBO, a band pass filter at 620-650 nm was used. The lamp was adjusted to give a uniform spot of about 4 cm diameter with an irradiance of 200 mW/cm^2, as measured with a power meter, e.g., a model DMM 199 meter with 201 Standard head (Coherent, Santa Clara, Calif.).
(§4) Typically, derivatized fullerenes prepared as described above are dissolved in DMSO to provide stock solutions having final concentrations of about 5 mM. […] All stock solutions were stored in the dark at room temperature.
(§5) In some experiments, for example in studies described in Examples below, suspensions of S. aureus cells (10^8 per ml) were incubated with derivatized fullerenes such as NI-1-3 and CI1-3 at a concentration of 100 μM in PBS at room temperature for 10 min. In other experiments, the bacterial suspension was centrifuged (4000×g for 10 min) after incubation and resuspended in fresh PBS before illumination; the latter procedure was referred to herein as a “wash.” E. coli, P. aeruginosa, and C. albicans were used at concentrations of about 10^8 cells per ml.
(§6) Illumination was carried out from above on microbial cell suspensions in wells of a 24-well plate. Aliquots were removed at times corresponding to the delivery of calculated fluences of light, and were serially diluted in PBS and streaked on square BHI or YM agar plates according to the method of Jett et al. (Jett, B. D., Hatter, K. L., Huycke, M. M., and Gilmore, M. S. (1997). Simplified agar plate method for quantifying viable bacteria. Biotechniques 23, 648-650). Survival fractions were calculated with reference to cells incubated in PBS alone. Values on killing curves at 0 J/cm^2 represent the dark toxicity of the fullerenes or other PS tested. Control cells were treated with light and no PS and also analyzed for viability.

P. aeruginosa = assay: as above; assay type: cell-based, Pseudomonas aeruginosa; conditions: 10 μM, 10 min, white light up to 50 J/cm^2
Method: as §1, §2, §3, §4, §5, §6

[1] = tested on: L929 murine fibroblast line; assay: Mammalian cell toxicity, MTT viability assay after illumination; assay type: cell-based, mouse
Description: Experiments to test the effect of functionalized fullerenes on mammalian cells can be performed in a suitable mammalian cell line. One such cell line is the L929 murine fibroblast line (ATCC #CCL1), a spontaneously transformed immortalized cell line established from the normal subcutaneous areolar and adipose tissue of a male C3H/An mouse (Earle, W. R., Schilling, E. L., Stark, T. H., Straus, N. P., Brown, M. F., and Shelton, E. (1943). Production of malignancy in vitro. IV. The mouse fibroblast cultures and changes seen in the living cells. J. Natl. Cancer Inst. 4, 165-212). In a suitable assay, these cells were cultured in Dulbecco's modified Eagle's medium (Sigma) at 37° C. in a humidified atmosphere containing 5% CO2. The medium is preferably modified by using 4 mM L-glutamine (containing 1.5 g/l sodium bicarbonate and 4.5 g/l glucose), 10% fetal bovine serum (FBS), 100 U/ml penicillin, and […] streptomycin. Cells were plated in 96-well cell culture plates, at a density of about 300 cells/well, and are allowed to attach for 24 hr.
Fullerenes and other PS, e.g., TBO, were added at a concentration of about 10 μM in 200 μl complete medium per well. After 10 min, fresh medium is added, and the cultures were illuminated with white light (for fullerenes) or with red light (for TBO). At the completion of the illumination period, cells were returned to the incubator for 24 hr. Cell viability can be determined, for example, by using the MTT-microculture tetrazolium assay, a method of assessing cellular response to PDT (Merlin, J. L., Azzi, S., Lignon, D., Ramacci, C., Zeghari, N., and Guillemin, F. (1992). MTT assays allow quick and reliable measurement of the response of human tumour cells to photodynamic therapy. Eur. J. Cancer 28A, 1452-1458. This assay involves the reduction of a colorless substrate, i.e., 3-[4,5-Dimethylthiazol-2-yl]-diphenyltetrazolium bromide (Sigma, St. Louis, […].) to an insoluble dark-blue formazan product which is formed in proportion to the amount of succinate dehydrogenase activity in the mitochondria of living cells. After incubation with MTT for periods ranging from 4 to 8 hr, the medium was aspirated from each well, and […] DMSO is added. The absorbance at 570 nm was read by a microplate reader, e.g., a Spectra Max™ 340 PC (Molecular Devices, Sunnyvale, Calif.). The fraction of cells surviving was calculated by dividing the mean absorbances of formazan produced from PDT-treated cells by the mean absorbances from dark controls incubated with PS and kept at room temperature for periods of time equal to the irradiation times.

C[N+]1(C)Cc2c(c3c4ccc5c6ccc7c8ccc9c%10c%11c%12c(c2c2c3c3c4c5c4c6c7c5c8c9c%11c6c(c%122)c3c4c56)C2C[N+](C)(C)CC%102)C1 (stereo not drawn) [CI2]
change of E. coli killing in the presence of serum versus no serum (E. coli; 10 min, 10% FBS, with a wash, white light): about 1 log
PDT activity against E. coli (E. coli; 10 min, white light up to 50 J/cm^2): effectively killed
killing of E. coli (E. coli; with a wash, 2 J/cm^2 white light): 4 logs
PDT activity against P. aeruginosa (P. aeruginosa): effectively killed
toxicity to L929 mammalian cells at fluences used for PDI of pathogens ([1]; 10 μM, 10 min, white light up to 50 J/cm^2): not killed
toxicity to mammalian cells at high fluences relative to TBO ([1]; L929, high fluences): considerably less toxic
